Laboratory results reported in patent US9353084B2, “2-amino 3,5,5-trifluoro-3,4,5,6-tetrahydropyridines as BACE1 inhibitors for treatment of Alzheimer's disease” (H. Lundbeck A/S, priority 2014, dated 2016).
Structures can show the parent of a compound that is named as a salt. Where two headings read alike, the source gives them in different places.

Assays:
Aβ40 = assay: Assessment of Aβ40 levels in rat brain and plasma following BACE1 inhibition (ELISA); type: in vivo; conditions: 3 hours post dose, vs vehicle
Experimental: (§1) Young adult Male Sprague Dawley rats of approximately 250 g weight were purchased from Charles River and received 0-30 mg/kg of vehicle (10% HP betaCD+1M MeSO4, pH 2.5) or test compounds (dissolved in vehicle) only by oral gavage (p.o). The compounds are dosed at a volume of 5 ml/kg. Cohorts of 5-10 animals were established for each treatment condition.
(§2) At T=180 minutes after initial dosing the animals were stunned and decapitated with a guillotine. Trunk-blood was sampled in EDTA coated tubes after decapitation of the animal. The blood was centrifuged at 2200 G at 4° C. for 15 minutes and the plasma was collected and frozen at −80° C. The blood was aliquoted for Aβ ELISA and DMPK analysis Immediately following sacrifice, the brain was extracted and split into 2 halves. The right hemibrains were snap frozen on dry ice and stored at −80° C. The left half was dissected; with the front forebrain taken for Aβ ELISA and the remainder used for DMPK analysis. These samples were also snap frozen on dry ice and stored at −80° C. until use for analysis.
The cortex samples were thawed slightly on wet ice before they were homogenized with a small volume dispersing instrument (T10 basic ULTRA-TURRAX®) which was set at speed 5 for approximately 5-7 sec. The tissue was processed in a 10 times volume of the weight, for example 100 mg of tissue was homogenized in 1000 μL of Homogenization buffer. Homogenization buffer: 50 ml Milli Q water+[…]+0.2% Diethylamin (DEA)+1 tablet of Complete Protease inhibitor cocktail+1 nM 4-(2-aminoethyl)benzenesulfonyl fluoride hydrochloride irreversible serine protease inhibitor (AEBSF).
After homogenization 450 μL aliquots of the samples are collected into a 1.5 ml Eppendorf tube and placed on wet ice, 0.5% NP-40 (50 ul) was added to all samples and then they were incubated on ice for 30 min. After which all samples were sonicated using an Ultrasonic homogenizer with 20 kHz homogeneous sound (SONOPLUS HD2070, Bandelin Electronic) 10 pulse set at 12-13% power to extract all the Aβ species. The samples were then centrifuged (Ole Dich 157 MPRF Micro centrifuge) at 20000 G for 20 minutes at 4° C. After centrifugation 285 μL of the supernatant was pipetted into 600 μL microtubes tubes and neutralized with 15 μL of 1M Tris-HCL buffer.
WAKO 294-62501 Human/Rat Abeta amyloid (40) kit was used for all ELISA analyses. 30 μL plasma samples or 30 μL of the cortex supernatants generated as described above were placed in 600 μL microtubes tubes on wet ice. To this 30 μL of 8M Urea (AppliChem A1049, 9025) are added to generate a 2-fold dilution. Both plasma and cortex supernatants are incubated on ice for 30 min. Standard rows were prepared from the standard peptide stock provided in the kit and standard diluent containing 1.6M Urea (200 μL 8M Urea+800 μL of standard diluent) and 0.8M Urea (400 μL 8M Urea+3600 μL Standard diluent). A serial 2-fold dilution of Aβ40 from 100 pmol/ml to 0 pmol/L was prepared for the assay.
After incubation with urea, all samples were further diluted by addition of 5 times standard diluent from the Kit. This was done by adding 240 μL Standard Diluent to 60 μL sample/urea mixture, which was then mixed well. 100 μL of each diluted sample was pipetted into designated wells of the ELISA plate in duplicates. The plate was then covered and incubated overnight at 4° C. The following day, the ELISA kit was brought to room temperature before use. The incubated plate was washed 5 times with the 20× washing solution diluted in Milli Q water. 100 μL HRP-conjugate was applied to each well, and the plate was covered and incubates at 4° C. for 1 hr. The wash was repeated again for 5 times. 100 μL 3,3′,5,5′-Tetramethylbenzidine (TMB) solution was applied to each well and the plate was covered and incubated in the dark at room temperature for 30 minutes. […]

[1] = Brain and plasma exposure in rats after oral dosing (DMPK analysis); type: in vivo; conditions: male, Sprague Dawley, 3 hours post dose, rat, read-out: Brain/Plasma ratio
Experimental: as §1, §2
Compounds 1, 5, 17, 18, and 24 were administered at doses of 10 or 30 mg/kg p.o. and brain and plasma samples were collected at 3 hours post dose and the following exposures and reductions in Aβ40 levels were measured as described above.

human BACE1 = human BACE1 (Homo sapiens (Human), UniProt P56817); assay: BACE1 binding assay (SPA-based, radioligand displacement); conditions: pH 4.5, Ki calculated from IC50
human BACE1, sequence (P56817 46-501): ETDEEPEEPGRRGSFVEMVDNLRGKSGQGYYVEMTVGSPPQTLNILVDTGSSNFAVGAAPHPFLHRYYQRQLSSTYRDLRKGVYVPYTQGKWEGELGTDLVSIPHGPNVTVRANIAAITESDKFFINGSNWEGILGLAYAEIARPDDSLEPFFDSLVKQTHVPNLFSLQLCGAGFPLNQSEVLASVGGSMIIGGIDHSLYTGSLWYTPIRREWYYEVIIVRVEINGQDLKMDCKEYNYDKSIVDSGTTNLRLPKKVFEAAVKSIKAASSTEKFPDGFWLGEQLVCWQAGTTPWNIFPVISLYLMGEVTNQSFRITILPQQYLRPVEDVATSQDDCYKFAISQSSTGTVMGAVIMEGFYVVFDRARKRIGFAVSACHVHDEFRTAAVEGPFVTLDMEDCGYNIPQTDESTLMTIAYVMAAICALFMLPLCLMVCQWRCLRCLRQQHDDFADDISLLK
Experimental: The binding assay was performed as SPA-based assay using a biotinylated form of human BACE1 recombinantly expressed and subsequently purified from Freestyle HEK293 cells. The binding assay was run in a 50 mM sodium acetate buffer, pH 4.5 containing 50 mM NaCl and 0.03% Tween-20 in white clear bottom 384 plates (Corning #3653). 10 nM (final concentration) radioligand ([^3H]—N-((1S,2R)-1-benzyl-3-cyclopropylamino-2-hydroxy-propyl)-5-(methanesulfonyl-methyl-amino)-N—((R)-1-phenyl-ethyl)-isophthalamide) (TRQ11569 purchased from GE Healthcare) was mixed with test compound at a given concentration, 6 nM (final concentration) human BACE1 and 25 μg Streptavidin coated PVT core SPA beads (RPNQ0007, GE Healthcare Life Sciences) in a total volume of 40 μl. Several concentrations of each test compound were tested in the assay for IC50 determination. The plates were incubated for one hour at room temperature and counted in a Wallac Trilux counter. Total and non-specific binding were determined using buffer and 1 μM (final concentration) of the high affinity BACE1 reference inhibitor (S)-6-[3-chloro-5-(5-prop-1-ynyl-pyridin-3-yl)-thiophen-2-yl]-2-imino-3,6-dimethyl-tetrahydro-pyrimidin-4-one, respectively. For each test compound, a IC50 value (the concentration mediating 50% inhibition of the specific binding of the radioligand) was determined from concentration-response curve and used to calculate the Ki from the equation Ki=IC50/(1+L/Kd), where L and Kd are the final concentration of the radioligand used in the assay and the dissociation constant of the radioligand, respectively. The Kd of the radioligand was determined from saturation binding experiments.

Row | Structure (SMILES) | Ki (human BACE1) [nM] | also measured
1 | C[C@]1(F)CC(F)(F)[C@@](C)(c2cc(NC(=O)c3ccc(F)cn3)ccc2F)N=C1N [Compound 1, N-(3-((2R,5S)-6-amino-3,3,5-trifluoro-2,5-dimethyl-2,3,4,5-tetrahydropyridin-2-yl)-4-fluorophenyl)-5-fluoropicolinamide] | 83 | Aβ40 reduction, Brain Rat (Aβ40; 30 mg/kg p.o.): 56%; Aβ40 reduction, Plasma Rat (Aβ40; 30 mg/kg p.o.): 41%; Kp at 3 h ([1]; 30 mg/kg p.o.): 0.62
2 | COc1cnc(C(=O)Nc2ccc(F)c([C@@]3(C)N=C(N)[C@@](C)(F)CC3(F)F)c2)cn1 [Compound 5, N-(3-((2R,5S)-6-amino-3,3,5-trifluoro-2,5-dimethyl-2,3,4,5-tetrahydropyridin-2-yl)-4-fluorophenyl)-5-methoxypyrazine-2-carboxamide] | 18 | Aβ40 reduction, Brain Rat (Aβ40; 10 mg/kg p.o.): 34%; Aβ40 reduction, Plasma Rat (Aβ40; 10 mg/kg p.o.): 34%; Aβ40 reduction, Brain Rat (Aβ40; 30 mg/kg p.o.): 61%; Aβ40 reduction, Plasma Rat (Aβ40; 30 mg/kg p.o.): 39%; Kp at 3 h ([1]; 10 mg/kg p.o.): 1.3; Kp at 3 h ([1]; 30 mg/kg p.o.): 1.5
3 | Cc1nc(C(=O)Nc2ccc(F)c([C@@]3(C)N=C(N)[C@](C)(F)CC3(F)F)c2)no1 [Compound 35, N-(3-((2R,5R)-6-amino-3,3,5-trifluoro-2,5-dimethyl-2,3,4,5-tetrahydropyridin-2-yl)-4-fluorophenyl)-5-methyl-1,2,4-oxadiazole-3-carboxamide] | 680 | –
4 | C[C@@]1(F)CC(F)(F)[C@@](C)(c2cc(NC(=O)c3nccs3)ccc2F)N=C1N [Compound 36, N-(3-((2R,5R)-6-amino-3,3,5-trifluoro-2,5-dimethyl-2,3,4,5-tetrahydropyridin-2-yl)-4-fluorophenyl)thiazole-2-carboxamide] | 390 | –
5 | Cn1cc(Br)nc1C(=O)Nc1ccc(F)c([C@@]2(C)N=C(N)[C@](C)(F)CC2(F)F)c1 [Compound 37, N-(3-((2R,5R)-6-amino-3,3,5-trifluoro-2,5-dimethyl-2,3,4,5-tetrahydropyridin-2-yl)-4-fluorophenyl)-4-bromo-1-methyl-1H-imidazole-2-carboxamide] | 420 | –
6 | Cc1cn(C)c(C(=O)Nc2ccc(F)c([C@@]3(C)N=C(N)[C@](C)(F)CC3(F)F)c2)n1 [Compound 38, N-(3-((2R,5R)-6-amino-3,3,5-trifluoro-2,5-dimethyl-2,3,4,5-tetrahydropyridin-2-yl)-4-fluorophenyl)-1,4-dimethyl-1H-imidazole-2-carboxamide] | 1000 | –
7 | Cn1ccc(C(=O)Nc2ccc(F)c([C@@]3(C)N=C(N)[C@](C)(F)CC3(F)F)c2)n1 [Compound 39, N-(3-((2R,5R)-6-amino-3,3,5-trifluoro-2,5-dimethyl-2,3,4,5-tetrahydropyridin-2-yl)-4-fluorophenyl)-1-methyl-1H-pyrazole-3-carboxamide] | 4800 | –
8 | Cc1cc(C(=O)Nc2ccc(F)c([C@@]3(C)N=C(N)[C@](C)(F)CC3(F)F)c2)on1 [Compound 40, N-(3-((2R,5R)-6-amino-3,3,5-trifluoro-2,5-dimethyl-2,3,4,5-tetrahydropyridin-2-yl)-4-fluorophenyl)-3-methylisoxazole-5-carboxamide] | 8200 | –
9 | Cc1ccc(C(=O)Nc2ccc(F)c([C@@]3(C)N=C(N)[C@](C)(F)CC3(F)F)c2)o1 [Compound 41, N-(3-((2R,5R)-6-amino-3,3,5-trifluoro-2,5-dimethyl-2,3,4,5-tetrahydropyridin-2-yl)-4-fluorophenyl)-5-methylfuran-2-carboxamide] | 520 | –
10 | Cc1ncc(C(=O)Nc2ccc(F)c([C@@]3(C)N=C(N)[C@](C)(F)CC3(F)F)c2)o1 [Compound 42, N-(3-((2R,5R)-6-amino-3,3,5-trifluoro-2,5-dimethyl-2,3,4,5-tetrahydropyridin-2-yl)-4-fluorophenyl)-2-methyloxazole-5-carboxamide trifluoroacetic acid salt] | 1500 | –
11 | [2H]C([2H])([2H])Oc1ccc(C(=O)Nc2ccc(F)c([C@@]3(C)N=C(N)[C@](C)(F)CC3(F)F)c2)nc1 [Compound 43, N-(3-((2R,5R)-6-amino-3,3,5-trifluoro-2,5-dimethyl-2,3,4,5-tetrahydropyridin-2-yl)-4-fluorophenyl)-5-(methoxy-d3)picolinamide] | 91 | –
12 | C[C@@]1(F)CC(F)(F)[C@@](C)(c2cc(NC(=O)c3ccc(Cl)cc3)ccc2F)N=C1N [Compound 44, N-(3-((2R,5R)-6-amino-3,3,5-trifluoro-2,5-dimethyl-2,3,4,5-tetrahydropyridin-2-yl)-4-fluorophenyl)-4-chlorobenzamide] | 740 | –

The next lines start with results.

Row | Ki (human BACE1) [nM] | Structure (SMILES) | also measured
13 | 14 | C[C@]1(F)CC(F)(F)[C@@](C)(c2cc(NC(=O)c3ccc(OC(F)F)cn3)ccc2F)N=C1N [Compound 45, N-(3-((2R,5S)-6-amino-3,3,5-trifluoro-2,5-dimethyl-2,3,4,5-tetrahydropyridin-2-yl)-4-fluorophenyl)-5-(difluoromethoxy)picolinamide] | –
14 | 14 | COc1cnc(C(=O)Nc2ccc(F)c([C@@]3(C)N=C(N)[C@@](C)(F)CC3(F)F)c2)c(F)c1 [Compound 46, N-(3-((2R,5S)-6-amino-3,3,5-trifluoro-2,5-dimethyl-2,3,4,5-tetrahydropyridin-2-yl)-4-fluorophenyl)-3-fluoro-5-methoxypicolinamide] | –
15 | 65 | Cc1nc(C(=O)Nc2ccc(F)c([C@@]3(C)N=C(N)[C@@](C)(F)CC3(F)F)c2)c(C)o1 [Compound 47, N-(3-((2R,5S)-6-amino-3,3,5-trifluoro-2,5-dimethyl-2,3,4,5-tetrahydropyridin-2-yl)-4 fluorophenyl)-2,5-dimethyloxazole-4-carboxamide] | –
16 | 14 | [2H]C([2H])([2H])Oc1ccc(C(=O)Nc2ccc(F)c([C@@]3(C)N=C(N)[C@@](C)(F)CC3(F)F)c2)nc1 [Compound 48] | –
17 | 60 | Cc1cc(F)cnc1C(=O)Nc1ccc(F)c([C@@]2(C)N=C(N)[C@@](C)(F)CC2(F)F)c1 [Compound 49, N-(3-((2R,5S)-6-amino-3,3,5-trifluoro-2,5-dimethyl-2,3,4,5-tetrahydropyridin-2-yl)-4-fluorophenyl)-5-fluoro-3-methylpicolinamide] | –
